Results as given in US20080051420A1, “New Compounds 317” (AstraZeneca AB, priority 2006, published 2008).

Molecular target: T1, human β-secretase (Homo sapiens, UniProt P56817)
T1 construct: The soluble part of the human β-secretase (AA 1-AA 460) was cloned; made in house
Assay: TR-FRET assay (β-secretase enzyme, sBACE-Fc)
Assay type: biochemical
Settings: read-out: IC50 in TR-FRET assay
Protocol: The enzyme used in the IGEN Cleavage-, Fluorescent-, TR-FRET- and BiaCore assays is described as follows:
The soluble part of the human β-secretase (AA 1-AA 460) was cloned into the ASP2-F10-1-IRES-GFP-neoK mammalian expression vector. The gene was fused to the Fc domain of IgG1 (affinity tag) and stably cloned into HEK 293 cells. Purified sBACE-Fc is stored in Tris buffer, pH 9.2 and has a purity of 95%.
Enzyme was diluted to 6 μg/mL and the substrate (Europium)[…](Qsy7) to 200 nM in reaction buffer (NaAcetate, chaps, triton x-100, EDTA pH 4.5). Compounds were diluted to the desired concentration in dimethyl sulfoxide (final dimethyl sulfoxide concentration in assay is 5%). […] Enzyme (9 μL) and 1 μL of compound in dimethyl sulfoxide was added to the plate, mixed and pre-incubated for 10 min. Substrate (10 μL) was added and the reaction proceeded in the dark for 15 min at RT. The reaction was stopped with the addition of 7 μL NaAcetate, pH 9. […] The dimethyl sulfoxide control defined the 100% activity level and 0% activity was defined by exclusion of the enzyme (using reaction buffer instead).

T1 sequence (P56817 22-460): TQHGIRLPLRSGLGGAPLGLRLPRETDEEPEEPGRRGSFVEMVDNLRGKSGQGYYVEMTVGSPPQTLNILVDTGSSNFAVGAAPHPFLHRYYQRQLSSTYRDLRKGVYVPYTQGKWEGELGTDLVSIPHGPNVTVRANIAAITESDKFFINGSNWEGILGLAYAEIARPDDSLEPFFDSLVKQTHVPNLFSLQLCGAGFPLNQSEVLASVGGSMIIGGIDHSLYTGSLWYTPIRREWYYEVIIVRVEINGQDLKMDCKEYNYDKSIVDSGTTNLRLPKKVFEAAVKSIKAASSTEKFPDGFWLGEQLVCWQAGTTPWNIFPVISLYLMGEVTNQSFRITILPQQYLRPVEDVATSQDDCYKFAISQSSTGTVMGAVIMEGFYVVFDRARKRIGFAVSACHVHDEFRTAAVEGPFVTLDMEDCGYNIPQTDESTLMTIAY

SMILES | IC50
CCCS(=O)(=O)Oc1ccc(C2(c3cccc(-c4cccc(C(F)(F)F)c4)c3)N=C(N)N3CCCN=C32)cc1 (stereo not drawn) [Example 60, 4-{6-Amino-8-[3′-(trifluoromethyl)biphenyl-3-yl]-2,3,4,8-tetrahydroimidazo[1,5-a]pyrimidin-8-yl}phenyl propane-1-sulfonate 0.5 acetate] | 493 nM
NC1=NC(c2cccc(OS(=O)(=O)C(F)(F)F)c2)(c2cccc(-c3cc(Cl)cc(Cl)c3)c2)C2=NCCCN12 (stereo not drawn) [Example 128, 3-[6-Amino-8-(3′,5′-dichlorobiphenyl-3-yl)-2,3,4,8-tetrahydroimidazo[1,5-a]pyrimidin-8-yl]phenyl trifluoromethanesulfonate] | 214 nM
CCCS(=O)(=O)Oc1ccc(C2(c3cccc(-c4cccc(Cl)c4)c3)N=C(N)N3CCCN=C32)cc1 (stereo not drawn) [Example 57, 4-[6-Amino-8-(3′-chlorobiphenyl-3-yl)-2,3,4,8-tetrahydroimidazo[1,5-a]pyrimidin-8-yl]phenyl propane-1-sulfonate 0.75 acetate] | 71 nM
CC(C)S(=O)(=O)Oc1ccc(C2(c3cccc(-c4cccnc4)c3)N=C(N)N3CCN=C32)cc1 (stereo not drawn) [Example 83, 4-[5-Amino-7-(3-pyridin-3-ylphenyl)-2,7-dihydro-3H-imidazo[1,5-a]imidazol-7-yl]phenyl propane-2-sulfonate 0.75 acetate] | 2510 nM
COc1cncc(-c2cccc(C3(c4ccc(OS(C)(=O)=O)cc4)N=C(N)N4CCCN=C43)c2)c1 (stereo not drawn) [Example 34, 4-{6-Amino-8-[3-(5-methoxypyridin-3-yl)phenyl]-2,3,4,8-tetrahydroimidazo[1,5-a]pyrimidin-8-yl}phenyl methanesulfonate acetate] | 161 nM
CCCS(=O)(=O)Oc1ccc(C2(c3cccc(-c4cc(Cl)ccc4Cl)c3)N=C(N)N3CCCN=C32)cc1 (stereo not drawn) [Example 63, 4-[6-Amino-8-(2′,5′-dichlorobiphenyl-3-yl)-2,3,4,8-tetrahydroimidazo[1,5-a]pyrimidin-8-yl]phenyl propane-1-sulfonate 0.75 acetate] | 912 nM
COc1cccc(-c2cccc(C3(c4ccc(OS(C)(=O)=O)cc4)N=C(N)N4CCN=C43)c2)c1 (stereo not drawn) [Example 74, 4-[5-Amino-7-(3′-methoxybiphenyl-3-yl)-2,7-dihydro-3H-imidazo[1,5-a]imidazol-7-yl]phenyl methanesulfonate 0.25 acetate] | 449 nM
COc1cc(OS(C)(=O)=O)cc(-c2cccc(C3(c4cccc(OC)c4)N=C(N)N4CCCN=C43)c2)c1 (stereo not drawn) [Example 133, 3′-[6-Amino-8-(3-methoxyphenyl)-2,3,4,8-tetrahydroimidazo[1,5-a]pyrimidin-8-yl]-5-methoxybiphenyl-3-yl methanesulfonate] | 375 nM
COc1cncc(-c2cccc(C3(c4ccc(OS(=O)(=O)C(C)C)cc4)N=C(N)N4CCN=C43)c2)c1 (stereo not drawn) [Example 85, 4-{5-Amino-7-[3-(5-methoxypyridin-3-yl)phenyl]-2,7-dihydro-3H-imidazo[1,5-a]imidazol-7-yl}phenyl propane-2-sulfonate 0.5 acetate] | 1030 nM
COc1cccc(-c2cccc(C3(c4cccc(OS(=O)(=O)C(F)(F)F)c4)N=C(N)N4CCCN=C43)c2)c1 (stereo not drawn) [Example 129, 3-[6-Amino-8-(3′-methoxybiphenyl-3-yl)-2,3,4,8-tetrahydroimidazo[1,5-a]pyrimidin-8-yl]phenyl trifluoromethanesulfonate] | 464 nM
CS(=O)(=O)Oc1ccc(C2(c3cccc(-c4cc(Cl)cnc4F)c3)N=C(N)N3CCN=C32)cc1 (stereo not drawn) [Example 79, 4-{5-Amino-7-[3-(5-chloro-2-fluoropyridin-3-yl)phenyl]-2,7-dihydro-3H-imidazo[1,5-a]imidazol-7-yl}phenyl methanesulfonate 0.5 acetate] | 436 nM
CS(=O)(=O)Oc1ccc(C2(c3cccc(-c4cccnc4)c3)N=C(N)N3CCN=C32)cc1 (stereo not drawn) [Example 77, 4-[5-Amino-7-(3-pyridin-3-ylphenyl)-2,7-dihydro-3H-imidazo[1,5-a]imidazol-7-yl]phenyl methanesulfonate 0.5 acetate] | 1530 nM
